US8975259B2, “Compositions and methods for inhibiting G protein signaling” (University of Rochester, priority 2007, dated 2015)

Key:
[1] = test system: differentiated HL60 cells; test: GM-CSF-induced chemotaxis of differentiated HL60 cells (Boyden chamber); assay type: cell-based, human; details: 10 μM compound, 1 μM GM-CSF; result in words
Description: Differentiated HL60 cells (200 k) were pretreated with 10 μM concentrations of the indicated compound, challenged with 250 nM fMLP, and assayed for chemotaxis in a Boyden chamber for 1 h at 37° C. […] Chemotaxis was quantified as above by subtracting out background cells (0-10 cells) in the absence of chemoattractant to obtain total transmigrated cells (−100 cells GM-CSF+vehicle) and represented as the percentage of GM-CSF-treated control cells. No statistically significant difference from control was seen by ANOVA. […] Primary human neutrophils were isolated from whole blood to ≧80% purity. […] Chemotaxis was quantified as above by subtracting out background cells to obtain total transmigrated cells and represented as the percentage of fMLP-treated control cells. […]
Chemotaxis was assayed using a Boyden chamber (Neuro Probe, Gaithersburg, Md.) using 3-μm polyvinylpyrrolidone-free polycarbonate filters (Neuro Probe). […] Chemotactic HL60 cells were scored by counting three microscope fields and subtracting the number of cells from fMLP wells as background. […] For all the small molecules, effects of the compounds on chemokinesis was analyzed by measuring chemotaxis in the presence of 250 nM fMLP in both the upper and lower chambers of the Boyden Chamber and measuring changes in transwell migration. […]

[2] = test system: naloxone-precipitated morphine withdrawal in mice; test: Acute morphine physical dependence (naloxone-precipitated jumping); assay type: in vivo, mouse; details: morphine 100 mg/kg s.c. −4 hr; M119 100 nmol i.c.v. 30 min before naloxone 10 mg/kg i.p.
Description: Prior to the administration of naloxone (30 min) mice were injected with vehicle, i.c.v. Withdrawal was precipitated by an injection of the opioid antagonist, naloxone (10 mg/kg, i.p.). Mice were immediately placed in a clear cylinder and observed for 15 min. The number of vertical jumps was recorded during this time.

[3] = test system: human μ opioid receptor (hMOR-CHO cells); test: Total inositol phosphate assay in hMOR-CHO cells; assay type: cell-based; details: 10 μM; result in words
Description: Chinese hamster ovary (CHO) cells stably expressing either the human κ (hKOR-CHO), δ (hDOR-CHO)(L. Toll, Stanford Research Institute, Palo Alto, Calif.) or μ (hMOR-CHO)(G. Uhl, National Institute on Drug Abuse, Baltimore, Md.) opioid receptor were used in the experiments. Cells in 6-well plates were labeled by adding 4 μCi of [^3H]inositol for 24 hr in inositol-free F-10 media, without serum. After labeling, LiCl was added directly to the labeling media at a final concentration of 10 mM. Ligands or peptides were added at the same time. The final volume of each well was 1 mL. The plates were put back in to the incubator at 37° C. for 30 min after which time the medium was aspirated and the plates were washed twice with 1× PBS. Ice-cold 50 mM formic acid, 1 mL, was added to the plates which were placed in the cold room at 4° C. for 30 min. After the incubation, the contents of the plates were applied to Dowex AG1-X8 columns and allowed to flow all the way through the column. The columns were washed, twice each, with 50 and 100 mM formic acid, for a total of four washes, followed by elution of the IP-containing fraction with 3 mL of 1.2 M ammonium formate/0.1 M formic acid. The eluted fraction was mixed with Scintisafe scintillation fluid, for high salt, and counted. The data are represented as the fold increase over control in total inositol phospates. All experiments were repeated three times and performed in duplicate. Control cells for each experiment were labeled with [^3H]inositol and LiCl, in the same manner as the treatment groups.

N-type Ca^2+ channels = test: Norepinephrine-dependent inhibition of N-type Ca2+ channels in rat superior cervical ganglion neurons (patch clamp); assay type: cell-based; details: initial analysis; result in words
Description: Norepinephrine inhibits N-type Ca^2+ channels through a Gβγ dependent mechanism in SCG neurons and activates GIRK channels when they are heterologously expressed. Neurons are pretreated with varying concentrations of compounds (either in the bath or included in the patch pipette), and NE dependent inhibition of N-type Ca^2+ channels are measured in the whole cell patch clamp configuration. […] This voltage dependence is diagnostic of Gβγ-mediated modulation. The “facilitation” ratio of the postpulse current to the prepulse current (during which inhibition is strong) provides a quantitative measure of the degree of Gβγ modulation. Uninhibited currents generally have a facilitation ratio around 1 so cells pretreated with compounds that inhibit Gβγ interactions with the channel causes the facilitation ratio to approach 1. The effects on responses to other receptors such as transfected μ-opioid receptors or endogenous M4 muscarinic receptors are also examined. GIRK channel regulation is assessed by microinjecting GIRK1/2 subunits in SCG neurons and measuring K^+ channel regulation by NE at varying concentrations of compound. Basal K^+ channel activity and Ca^2+ channel activity is assessed to look for non-specific effects of Gβγ blockers. […]

[4] = 250 mg/kg/day for two weeks, delivered by the NCI; cited from earlier work
[5] = test system: morphine-dependent antinociception in PLCβ3 −/− mice; test: 55° C. tail-flick antinociception in PLCβ3 −/− mice; assay type: in vivo, mouse; details: 100 nmol i.c.v.; result in words
Fαi1GDPβ1γ2 heterotrimer = molecular target: T1, Fαi1GDPβ1γ2 heterotrimer (UniProt P54311+P63212); test: Dissociation of Fαi1 from preformed Fαi1β1γ2 heterotrimer (flow cytometry); assay type: binding; details: result in words
T1 construct: made in house; host or cells: b-βγ: Sf9 insect cells
T1 sequence (P54311 whole entry): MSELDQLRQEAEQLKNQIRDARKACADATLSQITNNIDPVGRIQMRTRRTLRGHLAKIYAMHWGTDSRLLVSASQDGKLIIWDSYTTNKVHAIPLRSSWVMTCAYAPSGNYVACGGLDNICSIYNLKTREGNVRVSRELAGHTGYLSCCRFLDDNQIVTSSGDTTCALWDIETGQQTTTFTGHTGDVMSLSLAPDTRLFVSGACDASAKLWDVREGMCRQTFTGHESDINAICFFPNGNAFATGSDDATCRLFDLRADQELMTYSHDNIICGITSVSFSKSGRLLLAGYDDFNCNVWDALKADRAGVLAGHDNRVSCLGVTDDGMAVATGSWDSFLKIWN
T1 sequence (P63212 2-68 limits assumed): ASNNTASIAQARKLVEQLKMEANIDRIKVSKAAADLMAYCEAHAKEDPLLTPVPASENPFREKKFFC
Description: Assays were used to determine peptide effects on Gα-Gβγ interactions included competition and dissociation assays (Ghosh, et al. (2003) supra). […] To measure dissociation of Fan from b-Gβaγ2, 100 pM of Fa^ was incubated with 50 pM immobilized b-Gβ1γ2 at room temperature for 15-20 minutes. The fluorescence of bound Fαii subunit was measured, followed by the addition of a 200-fold excess of unlabeled Gcx±x or peptides and the amount of Fan remaining bound to the beads was measured at the indicated times.
The ability of peptides to dissociate a preformed hetero-trimer was assessed by comparing the rates of Fαi1 dissociation from Fαi1β1γ2 with excess unlabeled αi1 competitor (intrinsic dissocia-tion rate) and in the presence of a saturating concentration of peptide.

Row | Compound | effect on GM-CSF-induced chemotaxis [1] | number of vertical jumps in the 15-min counting period [2] | effect of compound by itself on IP production [3] | effect on DAMGO- and morphine-dependent IP production [3] | effect on NE dependent inhibition of N-type Ca^2+ channels (N-type Ca^2+ channels) | toxicity [4] | effect on morphine-dependent antinociception in PLCβ3 −/− mice [5] | promotion/acceleration of heterotrimer dissociation (Fαi1GDPβ1γ2 heterotrimer)
1 | O=C(O)c1ccccc1-c1c2ccc(=O)c(O)c-2oc2c(O)c(O)ccc12 (racemic) [Gallein] | Neither M119 nor gallein blocked |  |  |  |  |  |  | 
2 | O=C(O)C1CCCCC1c1c2ccc(=O)c(O)c-2oc2c(O)c(O)ccc12 (stereo not drawn) [Compound M119, cyclohexanecarboxylic acid, 2-(4,5,6-trihydroxy-3-oxo-3H-xanthen-9-yl)-(9cl)] | Neither M119 nor gallein blocked | 23±14 | no effect by itself | significantly attenuated | unaffected | no reported overt evidence of toxicity | no effect | did not promote dissociation
